Experiments:
[1] = tested on: recombinant NL4-3 virus (nef section replaced with Renilla luciferase gene) in MT-2 cells; test: HIV cell culture assay (antiviral activity, luciferase readout); format: cell-based; conditions: Renilla, NL43, MT-2 cells infected for 4-5 days with recombinant NL4-3 Renilla luciferase virus
Protocol: HIV cell culture assay—MT-2 cells, 293T cells and the proviral DNA clone of NL4-3 virus were obtained from the NIH AIDS Research and Reference Reagent Program. MT-2 cells were propagated in RPMI 1640 media supplemented with 10% heat inactivated fetal bovine serum (FBS), 100 jag/ml penicillin G and up to 100 units/mL streptomycin. The 293T cells were propagated in DMEM media supplemented with 10% heat inactivated FBS, 100 μg/mL penicillin G and 100 μg/mL streptomycin. A recombinant NL4-3 proviral clone, in which a section of the nef gene was replaced with the Renilla luciferase gene, was used to make the reference virus used in these studies. The recombinant virus was prepared through transfection of the recombinant NL4-3 proviral clone into 293T cells using Transit-293 Transfection Reagent from Mirus Bio LLC (Madison, Wis.). Supernatant was harvested after 2-3 days and the amount of virus present was titered in MT-2 cells using luciferase enzyme activity as a marker by measuring luciferase enzyme activity. Luciferase was quantitated using the EnduRen Live Cell Substrate from Promega (Madison, Wis.). Antiviral activities of compounds toward the recombinant virus were quantified by measuring luciferase activity in MT-2 cells infected for 4-5 days with the recombinant virus in the presence of serial dilutions of the compound.
(Johnson V A, Byington R T. Infectivity Assay. In Techniques in HIV Research. ed. Aldovini A, Walker B D. 71-76. New York: Stockton Press. 1990).

[2] = Compound cytotoxicity, XTT-based colorimetric assay; format: cell-based; conditions: human, uninfected MT2 cells, day 4, XTT
Protocol: Compound cytotoxicity and the corresponding CC50 values were determined using the same protocol as described in the antiviral assay except that uninfected cells were used. Cytotoxicity was assessed on day 4 in uninfected MT2 cells by using a XTT (2,3-bis[2-Methoxy-4-nitro-5-sulfophenyl]-2H-tetrazolium-5-carboxyanilide inner salt)-based colorimetric assay (Sigma-Aldrich, St Louis, Mo.).

SMILES | EC50 [1] [nM] | CC50 at 4 days [2] [µM]
COc1ccc(N(C)C(=O)[C@H](Cc2ccccc2)NC(=O)NS(=O)(=O)Nc2nccc3ccccc23)cc1 [JB-32] | 1450 | > 100
COc1ccc(N(C)C(=O)[C@H](Cc2ccccc2)NC(=O)NS(=O)(=O)Nc2ccc(C(F)(F)F)cc2)cc1 [CA-28] | 50 | > 100
COc1ccc(N(C)C(=O)[C@H](Cc2ccccc2)NC(=O)NS(=O)(=O)Nc2ccc3c(c2)CS(=O)(=O)C3)cc1 [CA-48] | 260 | > 100
CN(C(=O)[C@H](Cc1cc(F)cc(F)c1)NC(=O)NS(=O)(=O)NCc1ccccc1)c1ccc2scnc2c1 [CA-126] | 520 | > 100
COc1ccc(N(C)C(=O)[C@H](Cc2ccccc2)NC(=O)NS(=O)(=O)NCc2cncn2C)cc1 [JB-55] | 14800 | > 100
CN(C(=O)[C@H](Cc1cc(F)cc(F)c1)NC(=O)NS(=O)(=O)Nc1ccccn1)c1ccc2scnc2c1 [CA-114] | 100 | > 100
CN(C(=O)[C@H](Cc1cc(F)cc(F)c1)NC(=O)NS(=O)(=O)N1CCCC1)c1ccc2scnc2c1 [VN-22] | 50 | > 100
CN(C(=O)[C@H](Cc1cc(F)cc(F)c1)NC(=O)NS(=O)(=O)N1CCc2cccnc21)c1ccc(OC(F)(F)F)cc1 [GW-7] | 30 | 16.8
COc1ccc(N(C)C(=O)[C@H](Cc2ccccc2)NC(=O)NS(=O)(=O)NCC(=O)N(C)C)cc1 [CA-52] | 910 | > 100
COc1ccc(N(C)C(=O)[C@H](Cc2ccccc2)NC(=O)NS(=O)(=O)n2ccc3cccnc32)cc1 [JB-77] | 450 | > 100
CN(C(=O)[C@H](Cc1cc(F)cc(F)c1)NC(=O)NS(=O)(=O)NCc1cccnc1)c1ccc2scnc2c1 [CA-135] | 1530 | > 100
COc1ccc(N(C)C(=O)[C@H](Cc2ccccc2)NC(=O)NS(=O)(=O)Nc2ccccc2F)cc1 [CA-7] | 140 | > 100
[2H]c1nc2cc(N(C)C(=O)[C@H](Cc3cc(F)cc(F)c3)NC(=O)NS(=O)(=O)N3CCc4cccnc43)ccc2s1 [GW-23] | 20 | > 10
Cc1ccc(N(C)C(=O)[C@H](Cc2cc(F)cc(F)c2)NC(=O)NS(=O)(=O)N2CCc3cncnc32)cc1F [BB-14] | 20 | 93.1
COc1ccc(N(C)C(=O)[C@H](Cc2ccccc2)NC(=O)NS(=O)(=O)n2ccc3ccncc32)cc1 [CA-61] | 400 | > 100
COc1ccc(N(C)C(=O)[C@H](Cc2ccccc2)NC(=O)NS(=O)(=O)N2CCc3c(Cl)cccc32)cc1 [CA-1] | 250 | 21.4
CN(C(=O)[C@H](Cc1ccccc1)NC(=O)NS(=O)(=O)N(C)c1ccccc1Cl)c1ccc2ncccc2c1 [JB-11] | 40 | > 100
COc1ccc(N(C)C(=O)[C@H](Cc2ccccc2)NC(=O)NS(=O)(=O)N(C)c2ccccc2OC)cc1 [JB-23] | 870 | > 100
COc1cccc(N(C)S(=O)(=O)NC(=O)N[C@@H](Cc2cc(F)cc(F)c2)C(=O)N(C)c2ccc3scnc3c2)c1 [CA-119] | 60 | > 33.3
Cc1ccc(NS(=O)(=O)NC(=O)N[C@@H](Cc2cc(F)cc(F)c2)C(=O)N(C)c2ccc3scnc3c2)cc1 [ZY-10] | 50 | > 100
CCN(c1cccnc1)S(=O)(=O)NC(=O)N[C@@H](Cc1cc(F)cc(F)c1)C(=O)N(C)c1ccc2scnc2c1 [CA-121] | 990 | 7.3
COc1ccc(N(C)C(=O)[C@H](Cc2ccccc2)NC(=O)NS(=O)(=O)Nc2cccnc2)cc1 [JB-21] | 1780 | > 100
COc1ccc(N(C)C(=O)[C@H](Cc2ccccc2)NC(=O)NS(=O)(=O)Nc2ccc(C)cc2)cc1 [JB-26] | 40 | > 100

SMILES | EC50 [1] [nM] | CC50 at 4 days [2] [µM]
CN(C(=O)[C@H](Cc1cc(F)cc(F)c1)NC(=O)NS(=O)(=O)N1CCc2cccnc21)c1ccc(=O)n(C)c1 [BB-1] | 11000 | > 100
COc1ccc(N(C)C(=O)[C@H](Cc2ccccc2)NC(=O)NS(=O)(=O)NCC(=O)N2CCOCC2)cc1 [CA-59] | 6140 | > 100
COc1ccc2c(n1)N(S(=O)(=O)NC(=O)N[C@@H](Cc1cc(F)cc(F)c1)C(=O)N(C)c1ccc3scnc3c1)CC2 [AW-2] | 10 | > 100
COc1ccc(N(C)C(=O)[C@H](Cc2ccccc2)NC(=O)NS(=O)(=O)Nc2cc(Cl)cc(Cl)c2)cc1 [CA-49] | 180 | > 33.3
CN(C(=O)[C@H](Cc1cc(F)cc(F)c1)NC(=O)NS(=O)(=O)NCCO)c1ccc2scnc2c1 [CA-138] | 270 | > 100
COc1ccc(N(C)C(=O)[C@H](Cc2ccccc2)NC(=O)NS(=O)(=O)Nc2ccccc2NC(C)=O)cc1 [CA-42] | 4120 | > 100
COc1ccc(N(C)C(=O)[C@H](Cc2ccccc2)NC(=O)NS(=O)(=O)N2CCc3cc(Cl)cc(Cl)c32)cc1 [CA-3] | 5720 | > 100
CN(C(=O)[C@H](Cc1cc(F)cc(F)c1)NC(=O)NS(=O)(=O)N1CCc2ccccc2C1)c1ccc2scnc2c1 [CA-157] | 880 | 99.7
COc1ccc(N(C)C(=O)[C@H](Cc2ccccc2)NC(=O)NS(=O)(=O)Nc2cccc(-c3ccccc3)c2)cc1 [CA-37] | 1200 | > 33.3
COC1CN(S(=O)(=O)NC(=O)N[C@@H](Cc2cc(F)cc(F)c2)C(=O)N(C)c2ccc3scnc3c2)C1 [CA-128] | 100 | > 100
CC(=O)NCCNS(=O)(=O)NC(=O)N[C@@H](Cc1cc(F)cc(F)c1)C(=O)N(C)c1ccc2scnc2c1 [CA-137] | 1220 | > 100
COc1ccc(N(C)C(=O)[C@H](Cc2ccccc2)NC(=O)NS(=O)(=O)NCCc2ccccc2)cc1 [JB-33] | 680 | > 100
COc1ccc(N(C)C(=O)[C@H](Cc2ccccc2)NC(=O)NS(=O)(=O)NC(C)c2cccnc2)cc1 (stereo partly drawn) [JB-65] | 620 | > 100
COc1ccc(N(C)C(=O)[C@H](Cc2ccccc2)NC(=O)NS(=O)(=O)Nc2ccc(Oc3ccccc3)cc2)cc1 [CA-18] | 350 | > 33.3
COc1ccc(N(C)C(=O)[C@H](Cc2ccccc2)NC(=O)NS(=O)(=O)Nc2ccccc2Cl)cc1 [JB-5] | 100 | > 100
CN(C)C(=O)[C@@H]1CCCN1S(=O)(=O)NC(=O)N[C@@H](Cc1cc(F)cc(F)c1)C(=O)N(C)c1ccc2scnc2c1 [BB-22] | 380 | > 100
CN(C(=O)[C@H](Cc1cc(F)cc(F)c1)NC(=O)NS(=O)(=O)N1CCc2cccnc21)c1ccc(C(F)(F)F)nc1 [GW-9] | 180 | 35.1
COc1ccc(N(C)C(=O)[C@H](Cc2ccccc2)NC(=O)NS(=O)(=O)N2CC(c3ccccc3)C2)cc1 [JB-8] | 2690 | > 100
COc1ccc(N(C)C(=O)[C@H](Cc2ccccc2)NC(=O)NS(=O)(=O)Nc2cc(F)cc(F)c2)cc1 [JB-46] | 80 | > 100
CCOc1ccc(N(CC)C(=O)[C@H](Cc2ccccc2)NC(=O)NS(=O)(=O)N2CCc3c(Cl)cccc32)cc1 [JB-72] | 180 | > 33.3
CN(C(=O)[C@H](Cc1cc(F)cc(F)c1)NC(=O)NS(=O)(=O)N1CCc2nccnc21)c1ccc2scnc2c1 [ZY-22] | 520 | > 100
CC(C)Oc1ccc(N(C)C(=O)[C@H](Cc2cc(F)cc(F)c2)NC(=O)NS(=O)(=O)N2CCc3cccnc32)cn1 [BB-12] | 20 | 94.9

— patent publication US10221129B2, “Inhibitors of human immunodeficiency virus replication” (ViiV HEALTHCARE UK (NO.5) LIMITED, priority 2015, dated 2019)
